# Data published in ChEMBL document CHEMBL5143620, “Discovery of tricyclic HIV-1 integrase-LEDGF/p75 allosteric inhibitors by intramolecular direct arylation reaction” (Bioorg Med Chem Lett, 2022).
# Where “and” joins values, the source holds several entries; their conditions need not be identical. Identical values can stand only once.
# Experiments:
# [1] = tested on: Human immunodeficiency virus 1; assay: Antiviral activity against wild type HIV-1 infected in human MT4 cells assessed as inhibition of viral infection by MTT assay; type: functional, organism-based
# [2] = tested on: Human immunodeficiency virus 1; assay: Antiviral activity against […] HIV-1 harboring T174I mutant infected in human MT4 cells assessed as inhibition of viral infection by MTT assay; type: functional, organism-based
# [3] = tested on: MT4; assay: Cytotoxicity against human MT4 cells assessed as reduction in cell viability by MTT assay; type: functional
# [4] = Metabolic stability in human liver microsomes; type: ADME, Microsome
# [5] = Metabolic stability in rat liver microsomes; type: ADME, Microsome
# [6] = Elimination half life in rat at 0.5 mg/kg, iv; type: ADME, organism-based; settings: in vivo, read-out: beta t1/2 (converted)
# [7] = AUC in rat at 0.5 mg/kg, iv; type: ADME, organism-based; design: dose 0.5 mg/kg, route iv; settings: in vivo
# [8] = Oral bioavailability in rat at 1 mg/kg; type: ADME, organism-based; settings: in vivo
# [9] = Human immunodeficiency virus 1, MT4
Compound,"EC50 [1, 9]","EC50 [2, 9]","CC50 ([3]; Homo sapiens, MT4)",also measured
Cc1c(-c2ccc3c(c2)NCCC3)c([C@H](OC(C)(C)C)C(=O)O)c(C)c2c1-c1c(F)cccc1CN2S(C)(=O)=O,4.3 nM,99 nM,30 µM,
Cc1ccc(-c2c(C)c3c(c(C)c2[C@H](OC(C)(C)C)C(=O)O)N(S(C)(=O)=O)Cc2cnccc2-3)cc1,65 nM,> 5000 nM,65 µM,
Cc1ccc(-c2c(C)c3c(c(C)c2[C@H](OC(C)(C)C)C(=O)O)N(S(C)(=O)=O)Cc2cc(C)ccc2-3)cc1,4.9 nM,440 nM,14 µM,
Cc1ccc(-c2c(C)c3c(c(C)c2[C@H](OC(C)(C)C)C(=O)O)N(C)Cc2ccccc2-3)cc1,120 nM,,8.4 µM,
Cc1ccc(-c2c(C)c3c(c(C)c2[C@H](OC(C)(C)C)C(=O)O)N(S(C)(=O)=O)Cc2cc(Cl)ccc2-3)cc1,3.9 nM,330 nM,13 µM,
Cc1c(-c2ccc3c(c2)CCCO3)c([C@H](OC(C)(C)C)C(=O)O)c(C)c2c1-c1c(F)cccc1CN2S(C)(=O)=O,6.2 nM,170 nM,29 µM,
Cc1nc2ccccc2c(-c2ccc3c4c(ccnc24)CCO3)c1[C@H](OC(C)(C)C)C(=O)O [BI-224436],20 nM,> 5000 nM,> 50 µM,
Cc1ccc(-c2c(C)cc(N(Cc3ccccc3)S(C)(=O)=O)c(C)c2[C@H](OC(C)(C)C)C(=O)O)cc1,56 nM,,14 µM,
Cc1ccc(-c2c(C)c3c(c(C)c2[C@H](OC(C)(C)C)C(=O)O)N(S(C)(=O)=O)Cc2ncccc2-3)cc1,58 nM,> 5000 nM,61 µM,
Cc1ccc(-c2c([C@H](OC(C)(C)C)C(=O)O)c(C)c3c(c2C)c2ccccc2c(=O)n3C)cc1,730 nM,,25 µM,
Cc1c(-c2ccc(F)cc2)c([C@H](OC(C)(C)C)C(=O)O)c(C)c2c1-c1c(F)cccc1CN2S(C)(=O)=O,12 nM,860 nM,32 µM,
COc1ccc(-c2c(C)c3c(c(C)c2[C@H](OC(C)(C)C)C(=O)O)N(S(C)(=O)=O)Cc2cccc(F)c2-3)cc1,6.4 nM,320 nM,31 µM,
Cc1ccc(-c2c(C)c3c(c(C)c2[C@H](OC(C)(C)C)C(=O)O)N(S(C)(=O)=O)Cc2ccc(C)cc2-3)cc1,12 nM,930 nM,13 µM,
Cc1ccc(-c2c(C)c3c(c(C)c2[C@H](OC(C)(C)C)C(=O)O)N(S(C)(=O)=O)Cc2ccc(F)cc2-3)cc1,11 nM,1200 nM,15 µM,
Cc1ccc(-c2c(C)c3c(c(C)c2[C@H](OC(C)(C)C)C(=O)O)N(S(C)(=O)=O)Cc2ccncc2-3)cc1,20 nM,> 5000 nM,25 µM,
Cc1ccc(-c2c(C)c3c(c(C)c2[C@H](OC(C)(C)C)C(=O)O)N(S(C)(=O)=O)Cc2cccc(F)c2-3)c(C)c1,,1100 nM,18 µM,EC50 ([1]; mt4): 3.7 nM and 9.5 nM; EC50 ([2]; mt4): 1500 nM; CC50 [3]: 11 µM
Cc1ccc(-c2c(C)c3c(c(C)c2[C@H](OC(C)(C)C)C(=O)O)N(C)S(=O)(=O)c2ccccc2-3)cc1,76 nM,,19 µM,

Compound,"EC50 [1, 9]","EC50 [2, 9]","CC50 ([3]; Homo sapiens, MT4)",also measured
Cc1c(-c2c(C)c3c(c(C)c2[C@H](OC(C)(C)C)C(=O)O)N(S(C)(=O)=O)Cc2cccc(F)c2-3)ccc2c1CCCO2,,,17 µM,EC50 ([1]; mt4): 1.9 nM and 6.7 nM; EC50 ([2]; mt4): 48 nM and 420 nM; CC50 [3]: 22 µM
Cc1c(-c2ccc3c(c2)NCCO3)c([C@H](OC(C)(C)C)C(=O)O)c(C)c2c1-c1c(F)cccc1CN2S(C)(=O)=O,10 nM,150 nM,55 µM,
Cc1ccc(-c2c(C)c3c(c(C)c2[C@H](OC(C)(C)C)C(=O)O)N(S(C)(=O)=O)Cc2cc(C#N)ccc2-3)cc1,7.3 nM,720 nM,35 µM,
Cc1ccc(-c2c(C)c3c(c(C)c2[C@H](OC(C)(C)C)C(=O)O)N(S(C)(=O)=O)Cc2cccc(F)c2-3)cc1,5.5 nM,290 nM,17 µM,
Cc1ccc(-c2c(C)c3c(c(C)c2[C@H](OC(C)(C)C)C(=O)O)N(S(C)(=O)=O)Cc2cc(F)ccc2-3)cc1,5.7 nM,360 nM,19 µM,
Cc1ccc(-c2c(C)c3c(c(C)c2[C@H](OC(C)(C)C)C(=O)O)N(S(C)(=O)=O)Cc2cccnc2-3)cc1,23 nM,3200 nM,70 µM,
Cc1c(-c2ccc(Cl)cc2)c([C@H](OC(C)(C)C)C(=O)O)c(C)c2c1-c1c(F)cccc1CN2S(C)(=O)=O,8.6 nM,340 nM,16 µM,
Cc1ccc(-c2c(C)c3c(c(C)c2[C@H](OC(C)(C)C)C(=O)O)N(S(C)(=O)=O)Cc2ccccc2-3)cc1,11 nM,810 nM,21 µM,
Cc1ccc(-c2c(C)c3c(c(C)c2[C@H](OC(C)(C)C)C(=O)O)N(S(C)(=O)=O)Cc2cccc(C)c2-3)cc1,20 nM,600 nM,17 µM,
Cc1ccc(-c2c(C)c3c(c(C)c2[C@H](OC(C)(C)C)C(=O)O)N(S(C)(=O)=O)Cc2c(C)cccc2-3)cc1,8 nM,670 nM,17 µM,
Cc1ccc(-c2c(C)c3c(c(C)c2[C@H](OC(C)(C)C)C(=O)O)N(S(C)(=O)=O)Cc2cccc(Cl)c2-3)cc1,15 nM,540 nM,16 µM,
Cc1ccc(-c2c(C)c3c(c(C)c2[C@H](OC(C)(C)C)C(=O)O)N(S(C)(=O)=O)Cc2c(F)cccc2-3)cc1,10 nM,510 nM,24 µM,
Cc1ccc(-c2c(C)c3c(c(C)c2[C@H](OC(C)(C)C)C(=O)O)N(S(C)(=O)=O)Cc2cccc(F)c2-3)c(O)c1,,,,EC50 ([1]; mt4): 4.6 nM and 21 nM; Stability [4]: 76.3%; Stability [5]: 60.7%; CC50 [3]: 59 µM and 14 µM; half-life [6]: 210 min; AUC [7]: 21.2 ng·h/mL; bioavailability [8]: 17.8%
Cc1ccc(-c2c(C)c3c(c(C)c2[C@H](OC(C)(C)C)C(=O)O)N(S(C)(=O)=O)Cc2cc(C(F)(F)F)ccc2-3)cc1,3 nM,460 nM,10 µM,
Cc1ccc(-c2c([C@H](OC(C)(C)C)C(=O)O)c(C)c3[nH]c4ccccc4c3c2C)cc1,310 nM,,13 µM,
CC(=O)N1Cc2ccccc2-c2c(C)c(-c3ccc(C)cc3)c([C@H](OC(C)(C)C)C(=O)O)c(C)c21,30 nM,,27 µM,
COc1ccc2c(c1)CN(S(C)(=O)=O)c1c(C)c([C@H](OC(C)(C)C)C(=O)O)c(-c3ccc(C)cc3)c(C)c1-2,2.9 nM,270 nM,17 µM,
